In patent publication US9885088B2, “Rapid phenotypic diagnosis of pathogens and drug resistance using transcriptional expression signatures” (priority 2010, dated 2018):
Values after ≈ are worked out from the molar mass of the structure shown. Read-outs that look alike come from different tables or passages of the source.

Columns and labels:
E. coli [1] = assay: microbe, parasite or virus in culture; type: cell-based
E. coli [2] = type: cell-based; conditions: wild-type E. coli K-12, 10-30 minute exposure
M. tuberculosis [3] = assay: microbe, parasite or virus in culture; type: cell-based
M. tuberculosis [4] = type: cell-based
M. tuberculosis [5] = conditions: M. tuberculosis after drug exposure, cited from earlier work; for Magnitude of induction/repression in prior microarray-based assays, RV1570 bioD: gene RV1570 (bioD); for Magnitude of induction/repression in prior microarray-based assays, RV1570 bioD / Magnitude of induction/repression in prior microarray-based assays, RV1606 hisI / Magnitude of induction/repression in prior microarray-based assays, Rv0984 moaB2 / Magnitude of induction/repression in prior microarray-based assays, Rv2296 haloalkane / Magnitude of induction/repression in prior microarray-based assays, Rv2364c era: purpose RIF; for Magnitude of induction/repression in prior microarray-based assays, RV1606 hisI: gene RV1606 (hisI); for Magnitude of induction/repression in prior microarray-based assays, RV3675: gene RV3675 (Rv3675); for Magnitude of induction/repression in prior microarray-based assays, RV3675 / Magnitude of induction/repression in prior microarray-based assays, Rv2245 kasA / Magnitude of induction/repression in prior microarray-based assays, Rv2247 accD6 / Magnitude of induction/repression in prior microarray-based assays, Rv2846c efpA / Magnitude of induction/repression in prior microarray-based assays, Rv3801c fadD32: purpose INH; for Magnitude of induction/repression in prior microarray-based assays, Rv0055 rpsR: gene Rv0055 (rpsR); for Magnitude of induction/repression in prior microarray-based assays, Rv0055 rpsR / Magnitude of induction/repression in prior microarray-based assays, Rv1317c alkA / Magnitude of induction/repression in prior microarray-based assays, Rv2737c recA / Magnitude of induction/repression in prior microarray-based assays, Rv2790c ltp1 / Magnitude of induction/repression in prior microarray-based assays, Rv3296 lhr: purpose FQ; for Magnitude of induction/repression in prior microarray-based assays, Rv0667 rpoB: gene Rv0667 (rpoB); for Magnitude of induction/repression in prior microarray-based assays, Rv0667 rpoB / Magnitude of induction/repression in prior microarray-based assays, Rv1980c mpt64 / Magnitude of induction/repression in prior microarray-based assays, Rv2703 sigA / Magnitude of induction/repression in prior microarray-based assays, Rv3583c: purpose control; for Magnitude of induction/repression in prior microarray-based assays, Rv0813c CHP: gene Rv0813c (CHP); for Magnitude of induction/repression in prior microarray-based assays, Rv0813c CHP / Magnitude of induction/repression in prior microarray-based assays, Rv1511 gmdA / Magnitude of induction/repression in prior microarray-based assays, Rv1608c bcpB / Magnitude of induction/repression in prior microarray-based assays, Rv1832 gcvB / Magnitude of induction/repression in prior microarray-based assays, Rv3417c groEL: purpose SM; for Magnitude of induction/repression in prior microarray-based assays, Rv0984 moaB2: gene Rv0984 (moaB2); for Magnitude of induction/repression in prior microarray-based assays, Rv1317c alkA: gene Rv1317c (alkA); for Magnitude of induction/repression in prior microarray-based assays, Rv1511 gmdA: gene Rv1511 (gmdA); for Magnitude of induction/repression in prior microarray-based assays, Rv1608c bcpB: gene Rv1608c (bcpB); for Magnitude of induction/repression in prior microarray-based assays, Rv1832 gcvB: gene Rv1832 (gcvB); for Magnitude of induction/repression in prior microarray-based assays, Rv1980c mpt64: gene Rv1980c (mpt64); for Magnitude of induction/repression in prior microarray-based assays, Rv2245 kasA: gene Rv2245 (kasA); for Magnitude of induction/repression in prior microarray-based assays, Rv2247 accD6: gene Rv2247 (accD6); for Magnitude of induction/repression in prior microarray-based assays, Rv2296 haloalkane: gene Rv2296 (haloalkane); for Magnitude of induction/repression in prior microarray-based assays, Rv2364c era: gene Rv2364c (era); for Magnitude of induction/repression in prior microarray-based assays, Rv2703 sigA: gene Rv2703 (sigA); for Magnitude of induction/repression in prior microarray-based assays, Rv2737c recA: gene Rv2737c (recA); for Magnitude of induction/repression in prior microarray-based assays, Rv2790c ltp1: gene Rv2790c (ltp1); for Magnitude of induction/repression in prior microarray-based assays, Rv2846c efpA: gene Rv2846c (efpA); for Magnitude of induction/repression in prior microarray-based assays, Rv3296 lhr: gene Rv3296 (lhr); for Magnitude of induction/repression in prior microarray-based assays, Rv3417c groEL: gene Rv3417c (groEL); for Magnitude of induction/repression in prior microarray-based assays, Rv3583c: gene Rv3583c; for Magnitude of induction/repression in prior microarray-based assays, Rv3801c fadD32: gene Rv3801c (fadD32)
[6] = E. coli clinical isolate CIEC9955
[7] = Mycobacterium tuberculosis, H37RV

Compound: CC1(C)S[C@@H]2[C@H](NC(=O)[C@H](N)c3ccccc3)C(=O)N2[C@H]1C(=O)O [Ampicillin]
- Sensitive (S) or Resistant (R) (E. coli [1]; [6]): R
- Sensitive (S) or Resistant (R) (E. coli [1]; E. coli strain K12): S
- MIC (E. coli [1]; Escherichia coli, E. coli clinical isolate CIEC0838, read-out: MIC): > 250 µg/mL
- MIC (E. coli [1]; Escherichia coli, E. coli clinical isolate CIEC2219, read-out: MIC): > 250 µg/mL
- MIC (E. coli [1]; Escherichia coli, E. coli clinical isolate CIEC9181, read-out: MIC): > 250 µg/mL
- MIC (E. coli [1]; Escherichia coli, E. coli clinical isolate CIEC9955, read-out: MIC): > 250 µg/mL
- MIC (E. coli [1]; Escherichia coli, E. coli strain DH5α, read-out: MIC): 8 µg/mL (≈ 22.9 µM)
- MIC (E. coli [1]; Escherichia coli, E. coli strain J53, read-out: MIC): 4 µg/mL (≈ 11.4 µM)
- MIC (E. coli [1]; Escherichia coli, E. coli strain K12, read-out: MIC): 4 µg/mL (≈ 11.4 µM)
- changes in transcript levels (drug-susceptible expression signature) (E. coli [2]): expected changes in transcript levels

Compound: O=C(O)c1cn(C2CC2)c2cc(N3CCNCC3)c(F)cc2c1=O [Ciprofloxacin]
- MIC (M. tuberculosis [3]): 16 µg/mL (≈ 48.3 µM)

Compound: NNC(=O)c1ccncc1 [Isoniazid]
- MIC (M. tuberculosis [3]; Mycobacterium tuberculosis, BAA812): 0.4 µg/mL (≈ 2.92 µM)
- MIC (M. tuberculosis [3]; [7]): 0.05 µg/mL (≈ 0.365 µM)
- genes with drug-dependent induction (M. tuberculosis [4]): kasA, fadD32, accD6, efpA, and Rv3675.1

Compound: CO[C@H]1/C=C/O[C@@]2(C)Oc3c(C)c(O)c4c(O)c(c(/C=N/N5CCN(C)CC5)c(O)c4c3C2=O)NC(=O)/C(C)=C\C=C\[C@H](C)[C@H](O)[C@@H](C)[C@@H](O)[C@@H](C)[C@H](OC(C)=O)[C@@H]1C [RIF]
- Magnitude of induction/repression in prior microarray-based assays, RV1570 bioD (M. tuberculosis [5]): 1.2
- Magnitude of induction/repression in prior microarray-based assays, RV1606 hisI (M. tuberculosis [5]): 1.5
- Magnitude of induction/repression in prior microarray-based assays, RV3675 (M. tuberculosis [5]): 0.0
- Magnitude of induction/repression in prior microarray-based assays, Rv0055 rpsR (M. tuberculosis [5]): −0.9
- Magnitude of induction/repression in prior microarray-based assays, Rv0667 rpoB (M. tuberculosis [5]): 0.1
- Magnitude of induction/repression in prior microarray-based assays, Rv0813c CHP (M. tuberculosis [5]): 0.3
- Magnitude of induction/repression in prior microarray-based assays, Rv0984 moaB2 (M. tuberculosis [5]): 1.7
- Magnitude of induction/repression in prior microarray-based assays, Rv1317c alkA (M. tuberculosis [5]): 0.5
- Magnitude of induction/repression in prior microarray-based assays, Rv1511 gmdA (M. tuberculosis [5]): −0.3
- Magnitude of induction/repression in prior microarray-based assays, Rv1608c bcpB (M. tuberculosis [5]): 0.3
- Magnitude of induction/repression in prior microarray-based assays, Rv1832 gcvB (M. tuberculosis [5]): −0.4
- Magnitude of induction/repression in prior microarray-based assays, Rv1980c mpt64 (M. tuberculosis [5]): −1.2
- Magnitude of induction/repression in prior microarray-based assays, Rv2245 kasA (M. tuberculosis [5]): −1.0
- Magnitude of induction/repression in prior microarray-based assays, Rv2247 accD6 (M. tuberculosis [5]): −0.8
- Magnitude of induction/repression in prior microarray-based assays, Rv2296 haloalkane (M. tuberculosis [5]): 1.2
- Magnitude of induction/repression in prior microarray-based assays, Rv2364c era (M. tuberculosis [5]): 1.4
- Magnitude of induction/repression in prior microarray-based assays, Rv2703 sigA (M. tuberculosis [5]): −1.4
- Magnitude of induction/repression in prior microarray-based assays, Rv2737c recA (M. tuberculosis [5]): −0.6
- Magnitude of induction/repression in prior microarray-based assays, Rv2790c ltp1 (M. tuberculosis [5]): −0.7
- Magnitude of induction/repression in prior microarray-based assays, Rv2846c efpA (M. tuberculosis [5]): −0.9
- Magnitude of induction/repression in prior microarray-based assays, Rv3296 lhr (M. tuberculosis [5]): 0.2
- Magnitude of induction/repression in prior microarray-based assays, Rv3417c groEL (M. tuberculosis [5]): −0.9
- Magnitude of induction/repression in prior microarray-based assays, Rv3583c (M. tuberculosis [5]): −1.8
- Magnitude of induction/repression in prior microarray-based assays, Rv3801c fadD32 (M. tuberculosis [5]): −0.6

Compound: CO[C@H]1/C=C/O[C@@]2(C)Oc3c(C)c(O)c4c(O)c(c(/C=N/N5CCN(C)CC5)c(O)c4c3C2=O)NC(=O)/C(C)=C\C=C\[C@H](C)[C@H](O)[C@@H](C)[C@@H](O)[C@@H](C)[C@H](OC(C)=O)[C@@H]1C [Rifampin]
- genes with drug-dependent induction (M. tuberculosis [4]): bioD, hisI, era, and Rv2296

Compound: [H]/N=C(/N)N[C@H]1[C@H](O)[C@@H](O)[C@H](O[C@@H]2O[C@@H](C)[C@](O)(C=O)[C@H]2O[C@@H]2O[C@@H](CO)[C@H](O)[C@@H](O)[C@@H]2NC)[C@@H](N/C(N)=N\[H])[C@@H]1O [Streptomycin]
- MIC (M. tuberculosis [3]; [7]): 1 µg/mL (≈ 1.72 µM)
- genes with drug-dependent induction (M. tuberculosis [4]): CHP, bcpB, gcvB, and groEL
- Magnitude of induction/repression in prior microarray-based assays, RV1570 bioD (M. tuberculosis [5]): −0.3
- Magnitude of induction/repression in prior microarray-based assays, RV1606 hisI (M. tuberculosis [5]): −0.4
- Magnitude of induction/repression in prior microarray-based assays, RV3675 (M. tuberculosis [5]): 0.0
- Magnitude of induction/repression in prior microarray-based assays, Rv0055 rpsR (M. tuberculosis [5]): 1.7
- Magnitude of induction/repression in prior microarray-based assays, Rv0667 rpoB (M. tuberculosis [5]): 1.4
- Magnitude of induction/repression in prior microarray-based assays, Rv0813c CHP (M. tuberculosis [5]): 3.8
- Magnitude of induction/repression in prior microarray-based assays, Rv0984 moaB2 (M. tuberculosis [5]): −1.1
- Magnitude of induction/repression in prior microarray-based assays, Rv1317c alkA (M. tuberculosis [5]): 0.4
- Magnitude of induction/repression in prior microarray-based assays, Rv1511 gmdA (M. tuberculosis [5]): 1.6
- Magnitude of induction/repression in prior microarray-based assays, Rv1608c bcpB (M. tuberculosis [5]): 2.2
- Magnitude of induction/repression in prior microarray-based assays, Rv1832 gcvB (M. tuberculosis [5]): 1.3
- Magnitude of induction/repression in prior microarray-based assays, Rv1980c mpt64 (M. tuberculosis [5]): 0.4
- Magnitude of induction/repression in prior microarray-based assays, Rv2245 kasA (M. tuberculosis [5]): −1.9
- Magnitude of induction/repression in prior microarray-based assays, Rv2247 accD6 (M. tuberculosis [5]): −0.8
- Magnitude of induction/repression in prior microarray-based assays, Rv2296 haloalkane (M. tuberculosis [5]): 0.1
- Magnitude of induction/repression in prior microarray-based assays, Rv2364c era (M. tuberculosis [5]): −0.6
- Magnitude of induction/repression in prior microarray-based assays, Rv2703 sigA (M. tuberculosis [5]): 0.4
- Magnitude of induction/repression in prior microarray-based assays, Rv2737c recA (M. tuberculosis [5]): −0.1
- Magnitude of induction/repression in prior microarray-based assays, Rv2790c ltp1 (M. tuberculosis [5]): −1.1
- Magnitude of induction/repression in prior microarray-based assays, Rv2846c efpA (M. tuberculosis [5]): −0.7
- Magnitude of induction/repression in prior microarray-based assays, Rv3296 lhr (M. tuberculosis [5]): 0.1
- Magnitude of induction/repression in prior microarray-based assays, Rv3417c groEL (M. tuberculosis [5]): 1.6
- Magnitude of induction/repression in prior microarray-based assays, Rv3583c (M. tuberculosis [5]): 1.0
- Magnitude of induction/repression in prior microarray-based assays, Rv3801c fadD32 (M. tuberculosis [5]): 0.8

Compound: Gentamicin
- Sensitive (S) or Resistant (R) (E. coli [1]): S and R
- MIC (E. coli [1]; E. coli clinical isolate CIEC1676): 8 µg/mL
- MIC (E. coli [1]; E. coli clinical isolate CIEC1801): 8 µg/mL
- MIC (E. coli [1]; E. coli clinical isolate CIEC2219): 125 µg/mL
- MIC (E. coli [1]; E. coli clinical isolate CIEC4940): >250 µg/mL
- MIC (E. coli [1]; E. coli clinical isolate CIEC9181): >250 µg/mL
- MIC (E. coli [1]; [6]): 16 µg/mL
- MIC (E. coli [1]; E. coli strain K12): 8 µg/mL
- changes in transcript levels (drug-susceptible expression signature) (E. coli [2]): expected changes in transcript levels
